The record followed here is patent US9994594B2, “Inhibitors of arginase and their therapeutic applications” (MARS, INCORPORATED, priority 2010, dated 2018).

Counter-ions that a name gives are not always drawn. Like-named read-outs stand apart in the source and are kept apart here. Bounds are passed on as bounds.

One experiment has as its target T1, human arginase I (ARG I) (Homo sapiens, UniProt P05089).
T1 sequence (P05089 1-322): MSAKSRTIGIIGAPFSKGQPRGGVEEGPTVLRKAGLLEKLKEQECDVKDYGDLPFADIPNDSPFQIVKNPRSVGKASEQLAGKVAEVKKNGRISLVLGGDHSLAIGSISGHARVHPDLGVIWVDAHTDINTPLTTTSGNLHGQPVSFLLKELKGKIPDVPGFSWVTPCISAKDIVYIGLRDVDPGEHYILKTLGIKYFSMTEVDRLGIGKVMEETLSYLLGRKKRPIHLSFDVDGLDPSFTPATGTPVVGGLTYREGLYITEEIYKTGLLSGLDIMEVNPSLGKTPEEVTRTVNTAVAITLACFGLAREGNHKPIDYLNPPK
Nature of the experiment: Inhibition of arginase I, spectrophotometric urea assay at 530 nm. The experiment is classed as biochemical. The following applies: read-out: Potency (ARG I). As to the method:
(§1) The assay established the concentration of inhibitor that is required to reduce arginase activity by 50% (IC50).
(§2) Inhibition of arginase I (ARG I) and arginase II (ARG II) by Formula I and Formula II compounds is followed spectrophotometrically at 530 nm. The compound to be tested is dissolved in DMSO at an initial concentration 50-fold greater than its final concentration in the cuvette. 10 μl of the stock solution is diluted in 90 μl of the assay buffer that comprises 0.1M sodium phosphate buffer containing 130 mM NaCl, pH 7.4, to which is added ovalbumin (OVA) at a concentration of 1 mg/ml. Solutions of arginase I and II are prepared in 100 mM sodium phosphate buffer, pH 7.4 containing 1 mg/ml of OVA to give an arginase stock solution at a final concentration of 100 ng/ml.
(§3) To each well of a 96-well microtiter plate is add 40 μl of enzyme, 10 μl of an inventive compound and 10 μl of enzyme substrate (L-arginine+manganese sulfate). For wells that are used as positive controls, only the enzyme and its substrate are added, while wells used as negative controls contain only manganese sulfate.
(§4) After incubating the microtiter plate at 37° C. for 60 minutes, 150 μl of a urea reagent obtained by combining equal proportions (1:1) of reagents A and B is added to each well of the microtiter plate to stop the reaction. The urea reagent is made just before use by combining Reagent A (10 mM o-phthaldialdehyde, and 0.4% polyoxyethylene (23) lauryl ether (w/v) in 1.8 M sulfuric acid) with Reagent B (1.3 mM primaquine diphosphate, 0.4% polyoxyethylene (23) lauryl ether (w/v), 130 mM boric acid in 3.6 M sulfuric acid). After quenching the reaction mixture, the microtiter plate is allowed to stand for an additional 10 minutes at room temperature to allow color development. The inhibition of arginase is computed by measuring the optical density (OD) of the reaction mixture at 530 nm and normalizing the OD value to percent inhibition observed in the control. The normalized OD is then used to generate a dose-response curve by plotting the normalized OD values against log [concentration] and using regression analysis to compute the IC50 values.

The next experiment deals with T2, arginase II (ARG II) (Homo sapiens, UniProt P78540).
T2 sequence (P78540 23-354): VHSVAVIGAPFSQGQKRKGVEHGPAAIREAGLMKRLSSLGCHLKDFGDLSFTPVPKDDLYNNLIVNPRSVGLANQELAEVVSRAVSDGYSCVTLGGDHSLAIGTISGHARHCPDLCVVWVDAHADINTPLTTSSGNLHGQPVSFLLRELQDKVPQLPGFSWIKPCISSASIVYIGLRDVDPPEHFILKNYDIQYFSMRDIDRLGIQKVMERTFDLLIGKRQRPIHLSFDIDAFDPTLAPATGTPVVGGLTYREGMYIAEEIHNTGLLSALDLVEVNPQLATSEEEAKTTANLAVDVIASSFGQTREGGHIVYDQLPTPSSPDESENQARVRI
As to the kind of experiment: Inhibition of arginase II, spectrophotometric urea assay at 530 nm. The experiment is classed as biochemical. As to the method: as §1, §2, §3, §4

Where [1] appears, read: Formula II compounds, Table 2-A.
Setting [2] is: Formula II compounds, Table 2-A, read-out: Potency (ARG).
The mark [3] stands for this setting: Formula I compounds, Table 2, read-out: Potency (ARG II).

As for `NC(CCCCB(O)O)(C(=O)O)C1CCN(CCc2ccc(Cl)cc2Cl)CC1` (centres unmarked) [Example 47-A, 2-amino-6-borono-2-(1-(2,4-dichlorophenethyl)piperidin-4-yl)hexanoic acid], the values for the IC50 on human arginase I (ARG I) (setting [1]) and on arginase II (ARG II) (setting [2]) were 0.1 to 250 nM and 251 to 1000 nM, respectively.

With `CN(CCC(N)(CCCCB(O)O)C(=O)O)CC(=O)O` (centres unmarked) [compound 18, 2-amino-6-borono-2-(2-((carboxymethyl)(methyl)amino)ethyl)hexanoic acid dihydrochloride], the IC50 at human arginase I (ARG I) (Formula I compounds, Table 2) is 2000 to 5000 nM; at arginase II (ARG II) (setting [3]) it was 2000 to 5000 nM.

On to `N[C@](CCCCB(O)O)(CCN1CCC(CCO)CC1)C(=O)O` [compound 9, (R)-2-amino-6-borono-2-(2-(4-(2-hydroxyethyl)piperidin-1-yl)ethyl)hexanoic acid dihydrochloride], for which the IC50 on human arginase I (ARG I) (Formula I compounds, Table 2) fell in the range of 0.1 to 250 nM; at arginase II (ARG II) (setting [3]), 251 to 1000 nM.

As to `N[C@](CCCCB(O)O)(CCN1CCCCC1)C(=O)O` [compound 13, (R)-2-amino-6-borono-2-(2-(piperidin-1-yl)ethyl)hexanoic acid], the IC50 on human arginase I (ARG I) (Formula I compounds, Table 2) fell in the range of 0.1 to 250 nM; on arginase II (ARG II) (setting [3]) it was 251 to 1000 nM.

Turning to `NC(CCCCB(O)O)(C(=O)O)C1CCN(CCCc2ccc(C(F)(F)F)cc2)CC1` (centres unmarked) [Example 63-A, 2-amino-6-borono-2-(1-(3-(4-(trifluoromethyl)phenyl)propyl)piperidin-4-yl)hexanoic acid acid dihydrochloride], the IC50 on human arginase I (ARG I) (setting [1]) and at arginase II (ARG II) (setting [2]) was 0.1 to 250 nM throughout.

`NC(CCCCB(O)O)(Cc1ccccc1)C(=O)O` (centres unmarked) [compound 99, 2-amino-2-benzyl-6-boronohexanoic acid hydrochloride]: the IC50 at arginase II (ARG II) (setting [3]) was more than 5000 nM.

As for `NC(CCCCB(O)O)(C(=O)O)C1CCN(Cc2ccc(Cl)cc2)CC1` (centres unmarked) [Example 89-A, 2-amino-6-borono-2-(1-(4-chlorobenzyl)piperidin-4-yl)hexanoic acid dihydrochloride], the IC50 at human arginase I (ARG I) (setting [1]) and on arginase II (ARG II) (setting [2]) was 0.1 to 250 nM each time.

Take `N[C@](CCCCB(O)O)(CCN1CCSCC1)C(=O)O` [compound 8, (R)-2-amino-6-borono-2-(2-thiomorpholinoethyl)hexanoic acid dihydrochloride]: the IC50 is 1000 to 2000 nM on human arginase I (ARG I) (Formula I compounds, Table 2) and 2000 to 5000 nM on arginase II (ARG II) (setting [3]).

Take `NC(CCCCB(O)O)(C(=O)O)C1CCN(Cc2csc3ccccc23)CC1` (centres unmarked) [Example 104-A, 2-amino-2-(1-(benzo[b]thiophen-3-ylmethyl)piperidin-4-yl)-6-boronohexanoic acid dihydrochloride]: the IC50 at human arginase I (ARG I) (setting [1]) and on arginase II (ARG II) (setting [2]) was 0.1 to 250 nM in each case.

For the compound `NC(CCCCB(O)O)(C(=O)O)C1CCN(C(=O)Nc2ccc(Cl)c(Cl)c2)CC1` (centres unmarked) [Example 42-A, 2-amino-6-borono-2-(1-(3,4-dichlorophenylcarbamoyl)piperidin-4-yl)hexanoic acid], the figures for the IC50 at human arginase I (ARG I) (setting [1]) and at arginase II (ARG II) (setting [2]) were 251 to 1000 nM and 1000 to 2000 nM, respectively.

As for `NC(CCCCB(O)O)(C(=O)O)C1CCCN(Cc2ccc(Cl)c(Cl)c2)CC1` (centres unmarked) [Example 73-A, 2-amino-6-borono-2-(1-(3,4-dichlorobenzyl)azepan-4-yl)hexanoic acid dihydrochloride], the IC50 at human arginase I (ARG I) (setting [1]) lay within 0.1 to 250 nM; at arginase II (ARG II) (setting [2]) it was 251 to 1000 nM.

Regarding `NC(CCCCB(O)O)(C(=O)O)C1CCN(c2cc(C(F)(F)F)nc3ccccc23)CC1` (centres unmarked) [3-A, 2-amino-6-borono-2-[(2-Trifluoromethyl-quinolin-4-yl)-piperidin-4-yl)-hexanoic acid hydrochloride], the IC50 at human arginase I (ARG I) (setting [1]) and at arginase II (ARG II) (setting [2]) was 1000 to 2000 nM each time.

Take `NC(CCCCB(O)O)(CCN1CCC(F)CC1)C(=O)O` (centres unmarked) [compound 47, 2-amino-6-borono-2-(2-(4-fluoropiperidin-1-yl)ethyl)hexanoic acid dihydrochloride]: the IC50 at human arginase I (ARG I) (Formula I compounds, Table 2) is 1000 to 2000 nM; at arginase II (ARG II) (setting [3]), 2000 to 5000 nM.

Take `C[C@H](CO)NCCC(N)(CCCCB(O)O)C(=O)O` (some centres unmarked) [compound 91]: the IC50 lay within 2000 to 5000 nM on human arginase I (ARG I) (Formula I compounds, Table 2) and 2000 to 5000 nM on arginase II (ARG II) (setting [3]).

On to `NC(CCCCB(O)O)(C(=O)O)C1CCN(Cc2cccc(C(=O)O)c2)CC1` (centres unmarked) [Example 105-A, 3-((4-(1-amino-5-borono-1-carboxypentyl)piperidin-1-yl)methyl)benzoic acid dihydrochloride], for which the IC50 on human arginase I (ARG I) (setting [1]) and at arginase II (ARG II) (setting [2]) was 251 to 1000 nM throughout.

With `Cc1ccc(CN2CC[C@@H](C(N)(CCCCB(O)O)C(=O)O)C2)cc1` (stereo partly drawn) [Example 39-A, 2-Amino-6-borono-2-((R)-1-(4-methylbenzyl)pyrrolidin-3-yl)hexanoic acid dihydrochloride], the IC50 on human arginase I (ARG I) (setting [1]) and at arginase II (ARG II) (setting [2]) was 251 to 1000 nM in each case.

In the case of `CN(CCC(N)(CCCCB(O)O)C(=O)O)Cc1ccc(F)c(C(F)(F)F)c1` (centres unmarked) [compound 48, 2-amino-6-borono-2-(2-((4-fluoro-3-(trifluoromethyl)benzyl)(methyl)amino)ethyl)hexanoic acid dihydrochloride], the IC50 is 2000 to 5000 nM on human arginase I (ARG I) (Formula I compounds, Table 2) and more than 5000 nM at arginase II (ARG II) (setting [3]).

On to `NC(CCCCB(O)O)(C(=O)O)C1CCN(Cc2cccc3ccccc23)CC1` (centres unmarked) [Example 98-A, 2-amino-6-borono-2-(1-(naphthalen-1-ylmethyl)piperidin-4-yl)hexanoic acid dihydrochloride], for which the IC50 on human arginase I (ARG I) (setting [1]) and at arginase II (ARG II) (setting [2]) was 0.1 to 250 nM in each case.

Consider `NC(CCCCB(O)O)(CN1CCOCC1)C(=O)O` (centres unmarked) [compound 81, 2-amino-6-borono-2-(morpholinomethyl)hexanoic acid dihydrochloride], for which the IC50 on arginase II (ARG II) (setting [3]) was more than 5000 nM.

As to `NC(CCCCB(O)O)(CCC1Cc2ccccc2CN1)C(=O)O` (centres unmarked) [compound 131, 2-amino-6-borono-2-(2-(1,2,3,4-tetrahydroisoquinolin-3-yl)ethyl)hexanoic acid dihydrochloride], the IC50 on human arginase I (ARG I) (Formula I compounds, Table 2) fell in the range of 251 to 1000 nM.

`COCCCC(N)(CCCCB(O)O)C(=O)O` (centres unmarked) [compound 100, 2-amino-6-borono-2-(3-methoxypropyl)hexanoic acid hydrochloride]: on arginase II (ARG II) (setting [3]), the IC50 is more than 5000 nM.

For the compound `CC(C)CC(N)(CCCCB(O)O)C(=O)O` (centres unmarked) [compound 104, 2-amino-6-borono-2-isobutylhexanoic acid hydrochloride], the IC50 on arginase II (ARG II) (setting [3]) was more than 5000 nM.

As to `NC(CCCCB(O)O)(Cc1cccc(F)c1)C(=O)O` (centres unmarked) [compound 98, 2-amino-6-borono-2-(3-fluorobenzyl)hexanoic acid hydrochloride], the IC50 at arginase II (ARG II) (setting [3]) was more than 5000 nM.

In the case of `NC(CCCCB(O)O)(CCN1CCNCC1)C(=O)O` (centres unmarked) [compound 32, 2-amino-6-borono-2-(2-(piperazin-1-yl)ethyl)hexanoic acid trihydrochloride], at arginase II (ARG II) (setting [3]), the IC50 is 2000 to 5000 nM.

For `CN1CCN(CCC(N)(CCCCB(O)O)C(=O)O)CC1` (centres unmarked) [compound 35, 2-amino-6-borono-2-(2-(4-methylpiperazin-1-yl)ethyl)hexanoic acid trihydrochloride], the IC50 on arginase II (ARG II) (setting [3]) is 2000 to 5000 nM.

Turning to `NC(CCCO)(CCCCB(O)O)C(=O)O` (centres unmarked) [compound 101, 2-amino-6-borono-2-(3-hydroxypropyl)hexanoic acid hydrochloride], the IC50 on human arginase I (ARG I) (Formula I compounds, Table 2) fell in the range of 2000 to 5000 nM.

Consider `NC(CCCCB(O)O)(CCN1CCOCC1)C(=O)O` (centres unmarked) [compound 24, 2-amino-6-borono-2-(2-morpholinoethyl)hexanoic acid], for which the IC50 on arginase II (ARG II) (setting [3]) is 2000 to 5000 nM.

Consider `NC(CO)(CCCCB(O)O)C(=O)O` (centres unmarked) [compound 82, 2-amino-6-borono-2-(hydroxymethyl)hexanoic acid hydrochloride], for which the IC50 at arginase II (ARG II) (setting [3]) fell in the range of 2000 to 5000 nM.

For `CC(C)C(N)(CCCCB(O)O)C(=O)O` (centres unmarked) [compound 105, 2-amino-6-borono-2-isopropylhexanoic acid hydrochloride], at arginase II (ARG II) (setting [3]), the IC50 is more than 5000 nM.

For the compound `O=C(O)C1(CCCCB(O)O)CCCN1` (centres unmarked) [compound 103, 2-(4-boronobutyl)pyrrolidine-2-carboxylic acid hydrochloride], on arginase II (ARG II) (setting [3]), the IC50 is more than 5000 nM.
